Literature values, collected in the PKSmart pharmacokinetics tables (Seal et al. 2025).

Assay: Lombardo, Berellini, Obach 2018, Drug Metab Dispos 46:1466, doi 10.1124/dmd.118.082966
Settings: human; for MRT / Vd / clearance / half-life: in vivo, iv; for fraction unbound: plasma

Row | Compound | MRT | Vd | clearance | half-life | fraction unbound
1 | CCC(C)C(=O)O[C@H]1C[C@@H](C)C=C2C=C[C@H](C)[C@H](CC[C@@H](O)C[C@@H](O)CC(=O)O)[C@H]21 (some centres not stated) | 1.3 h | 0.87 L/kg | 0.432 L/h/kg | 1.4 h | 0.043
2 | NC[C@H]1O[C@H](O[C@H]2[C@H](O[C@@H]3O[C@H](CO)[C@@H](O)[C@H]3O)[C@@H](O)[C@H](N)C[C@@H]2N)[C@H](N)[C@@H](O)[C@@H]1O | 2.8 h | 0.25 L/kg | 0.09 L/h/kg | 2.5 h | –
3 | COc1ccc(CCN(C)CCCN2CCc3cc(OC)c(OC)cc3CC2=O)cc1OC | 3.2 h | 1.6 L/kg | 0.504 L/h/kg | 2.8 h | –
4 | C[C@@H]1CCN(C(=O)CC#N)C[C@@H]1N(C)c1ncnc2[nH]ccc12 | 3.5 h | 1.24 L/kg | 0.353 L/h/kg | – | 0.6
5 | Oc1ccc(C2=Cc3ccc(O)cc3OC2)cc1 | 0.44 h | 1.55 L/kg | 3.55 L/h/kg | 0.67 h | –
6 | CC[N+]1(CC)CCC(=C(c2ccccc2)c2ccccc2)[C@@H]1C | 2.5 h | 1.87 L/kg | 0.75 L/h/kg | 2.13 h | –
7 | N=C(N)c1ccc(C(=O)NC(Cc2ccc(O)cc2)C(=O)N2CCC(OCC(=O)O)CC2)cc1 (configuration not stated) | 2.5 h | 0.29 L/kg | – | 2.1 h | 0.94
8 | COc1cccc2c1c(NS(=O)(=O)c1ccc(Cl)s1)nn2Cc1cccc(CNC(=O)C(C)(C)O)c1 | 5.43 h | 1.65 L/kg | 0.306 L/h/kg | 13.5 h | –
9 | Cc1cc(Nc2cc(N3CCN(C)CC3)nc(Sc3ccc(NC(=O)C4CC4)cc3)n2)n[nH]1 | 4.5 h | 5.1 L/kg | 1.1 L/h/kg | 8.4 h | –
10 | O=C1CN=C(c2ccccc2Cl)c2cc(Cl)ccc2N1 | 220 h | 2.2 L/kg | 0.0102 L/h/kg | 200 h | 0.051
11 | COCOCC(CCC1(C(=O)NC2CCC(C(=O)O)CC2)CCCC1)C(=O)O (configuration not stated) | 1.81 h | 0.25 L/kg | 0.138 L/h/kg | 16 h | 0.872
12 | Cc1c(Cl)cccc1Nc1ccccc1C(=O)O | 1.13 h | 0.16 L/kg | 0.142 L/h/kg | 2.15 h | 0.003
13 | CN1Cc2c(N)cccc2C(c2ccccc2)C1 (configuration not stated) | 4.5 h | 6 L/kg | 1.32 L/h/kg | 6.5 h | –
14 | O=C1NC(=O)C(c2cn3ccccc3n2)=C1C1=CN2CCN(C(=O)N3CCCCC3)C[C@@H]3C=C(F)C=C1[C@H]32 | 1.9 h | 1.2 L/kg | 0.618 L/h/kg | 2.7 h | 0.02
15 | CCCNC(=O)NS(=O)(=O)c1ccc(Cl)cc1 | 70 h | 0.19 L/kg | 0.0027 L/h/kg | 46 h | –
16 | NC(C(=O)NC1C(=O)N2C(C(=O)O)=C(CSc3c[nH]nn3)CS[C@H]12)c1ccc(O)cc1 (some centres not stated) | 1.1 h | 0.22 L/kg | 0.198 L/h/kg | 1.2 h | –
17 | COc1ccc2c(c1)c(CC(=O)O)c(C)n2C(=O)c1ccc(Cl)cc1 | 1.2 h | 0.096 L/kg | 0.078 L/h/kg | 1.4 h | –

Row | Compound | MRT | Vd | clearance | half-life | fraction unbound
18 | CCc1c(O)cc(O)c(C(=O)c2ccc(OCCN3CCOCC3)c(OC)c2)c1CC(=O)N(CCOC)CCOC | 3.21 h | 1.32 L/kg | 0.412 L/h/kg | 5.94 h | –
19 | CC(=O)C[C@H](c1ccc([N+](=O)[O-])cc1)c1c(O)c2ccccc2oc1=O | 3.12 h | 0.24 L/kg | 0.0768 L/h/kg | 7.22 h | 0.02
20 | CN1CC(C(=O)N[C@]2(C)O[C@]3(O)[C@@H]4CCCN4C(=O)C(Cc4ccccc4)N3C2=O)C[C@@H]2c3cccc4[nH]cc(c34)C[C@H]21 (some centres not stated) | 0.36 h | 0.33 L/kg | 0.904 L/h/kg | 0.55 h | –
21 | N#Cc1ccc(Cn2cncc2CN2CCN(c3cccc(Cl)c3)C(=O)C2)cc1 | 4.2 h | 0.8 L/kg | 0.192 L/h/kg | 2.6 h | –
22 | CCN(CC)CC(=O)Nc1c(C)cccc1C | 1.9 h | – | – | – | –
23 | CCCn1c(=O)c2[nH]c(C34CCC(CCC(=O)O)(CC3)CC4)nc2n(CCC)c1=O | 11.7 h | 0.76 L/kg | 0.0648 L/h/kg | 16 h | 0.1
24 | CNC(=O)CC(N)C(=O)NC(C(=O)NC1C(=O)N2C(C(=O)O)C(C)(C)S[C@H]12)c1ccc(O)cc1 (some centres not stated) | 1.61 h | 0.27 L/kg | 0.169 L/h/kg | 1.45 h | –
25 | NCCCCC(NC(=O)C(Cc1cc(Br)c(O)c(Br)c1)NC(=O)N1CCC(N2Cc3ccccc3NC2=O)CC1)C(=O)N1CCN(c2ccncc2)CC1 (configuration not stated) | 1.9 h | 0.31 L/kg | 0.156 L/h/kg | 2.5 h | –
26 | COc1cc2c(cc1O)CCN[C@]21CS[C@@H]2c3c(OC(C)=O)c(C)c4c(c3[C@H](COC1=O)N1[C@@H]2[C@H]2c3c(cc(C)c(OC)c3O)C[C@@H]([C@@H]1O)N2C)OCO4 | 35 h | 25 L/kg | 0.72 L/h/kg | 44 h | 0.06
27 | CCOC(=O)[C@]1(c2ccccc2)CCC=C[C@H]1N(C)C | 4.2 h | 4 L/kg | 0.96 L/h/kg | 5 h | 0.21
28 | NCCC(O)C(=O)N[C@@H]1C[C@H](N)[C@@H](O[C@H]2O[C@H](CN)CC[C@H]2N)[C@H](O)[C@H]1O[C@H]1O[C@H](CO)[C@@H](O)[C@H](N)[C@H]1O (some centres not stated) | 2.73 h | 0.21 L/kg | 0.0768 L/h/kg | 2.46 h | –
29 | CCCCCCCCCC=CCCC(=O)N=CC(=O)N[C@@H]1[C@@H](O)[C@@H](O)[C@@H](Nc2[nH]cnc3ncnc2-3)O[C@H]1[C@@H](O)CO | 1.1 h | 0.17 L/kg | 0.162 L/h/kg | 1.3 h | –
30 | COc1ccc2c(c1)N(C[C@H](C)CN(C)C)c1ccccc1S2 | 21 h | 12 L/kg | 0.594 L/h/kg | 30 h | –
31 | COCCn1c2c([n+](Cc3cnccn3)c1C)C(=O)c1ccccc1C2=O | 34.5 h | 23.7 L/kg | 0.678 L/h/kg | 24.8 h | –
32 | CN1CCN(CCCN2c3ccccc3Sc3ccc(Cl)cc32)CC1 | 23 h | 22 L/kg | 0.96 L/h/kg | 9 h | –
33 | Cc1nc(NNC(=O)C(CC2CCCC2)CN(O)C=O)c(F)c(N2CCN3CCOCC3C2)n1 (configuration not stated) | 2.2 h | 0.75 L/kg | 0.336 L/h/kg | 4.2 h | –
34 | CN1CCN(CC(=O)N2c3ccccc3C(=O)Nc3cccnc32)CC1 | 10.3 h | 1.71 L/kg | 0.166 L/h/kg | 11.1 h | –
